# Test results as given in publication PMC6125496 (Antimicrobial Agents and Chemotherapy, 2018).
# Like-named read-outs stand apart in the source and are kept apart here.
# Columns and labels:
# [1] = test system: Klebsiella pneumoniae, colistin resistant (46)
# Text: (§1) Reference strains are from the German Collection of Microorganisms and Cell Cultures (DSMZ), the American Type Culture Collection (ATCC), the National Collection of Type Cultures (NCTC), and the Medical and Molecular Microbiology, Faculty of Science and Medicine, University of Fribourg, Switzerland.
# [2] = test system: Escherichia coli, colistin-resistant (25)
# Text: as §1
# [3] = test system: Klebsiella pneumoniae NCTC 13442; assay: microbe, parasite or virus in culture; conditions: Klebsiella pneumoniae, NCTC13442
# Text: as §1
# [4] = test system: Staphylococcus epidermidis ATCC 12228; assay: microbe, parasite or virus in culture; conditions: Staphylococcus epidermidis, ATCC12228
# Text: as §1
# [5] = test system: Escherichia coli ATCC 25922; assay: microbe, parasite or virus in culture; conditions: Escherichia coli, ATCC25922
# Text: as §1
# [6] = test system: Streptococcus pneumoniae DSM 2134; assay: microbe, parasite or virus in culture; conditions: Streptococcus pneumoniae, DSM2134
# Text: as §1
# [7] = test system: Enterococcus faecalis DSM 2570; assay: microbe, parasite or virus in culture; conditions: Enterococcus faecalis, DSM2570
# Text: as §1
# [8] = test system: Klebsiella pneumoniae NCTC 13443; assay: microbe, parasite or virus in culture; conditions: Klebsiella pneumoniae, NCTC13443
# Text: as §1
# [9] = test system: Klebsiella pneumoniae NCTC 13439; assay: microbe, parasite or virus in culture; conditions: Klebsiella pneumoniae, NCTC13439
# Text: as §1
# [10] = test system: Enterococcus faecium DSM 20477; assay: microbe, parasite or virus in culture; conditions: Enterococcus faecium, DSM20477
# Text: as §1
# [11] = test system: Enterobacter cloacae DSM 14563; assay: microbe, parasite or virus in culture; conditions: Enterobacter cloacae, DSM14563
# Text: as §1
# [12] = test system: Klebsiella pneumoniae ATCC 43816; assay: microbe, parasite or virus in culture; conditions: Klebsiella pneumoniae, ATCC43816
# Text: as §1
# [13] = test system: Acinetobacter baumannii ATCC 19606; assay: microbe, parasite or virus in culture; conditions: Acinetobacter baumannii, ATCC19606
# Text: as §1
# [14] = test system: Citrobacter freundii DSM 30039; assay: microbe, parasite or virus in culture; conditions: Citrobacter freundii, DSM30039
# Text: as §1
# [15] = test system: Klebsiella pneumoniae ATCC BAA-1904; assay: microbe, parasite or virus in culture; conditions: Klebsiella pneumoniae, ATCCBAA1904
# Text: as §1
# [16] = test system: Enterobacter aerogenes DSM 30053; assay: microbe, parasite or virus in culture; conditions: Klebsiella aerogenes, DSM30053
# Text: as §1
# [17] = test system: Citrobacter kozeri DSM 4595; assay: microbe, parasite or virus in culture; conditions: Citrobacter, DSM4595
# Text: as §1
# [18] = test system: Escherichia coli BAA-2471; assay: microbe, parasite or virus in culture; conditions: Escherichia coli, BAA2471
# Text: as §1
# [19] = test system: Klebsiella pneumoniae ATCC BAA-1905; assay: microbe, parasite or virus in culture; conditions: Klebsiella pneumoniae, ATCCBAA1905
# Text: as §1
# [20] = test system: Pseudomonas aeruginosa DSM 1117; assay: microbe, parasite or virus in culture; conditions: Pseudomonas aeruginosa, DSM1117
# Text: as §1
# [21] = test system: Serratia marcescens DSM 17174; assay: microbe, parasite or virus in culture; conditions: Serratia marcescens, DSM17174
# Text: as §1
# [22] = test system: Staphylococcus aureus ATCC 29213; assay: microbe, parasite or virus in culture; conditions: Staphylococcus aureus, ATCC29213
# Text: as §1
# [23] = test system: Stenotrophomonas maltophilia ATCC 13637; assay: microbe, parasite or virus in culture; conditions: Stenotrophomonas maltophilia, ATCC13637
# Text: as §1
# [24] = test system: Escherichia coli BAA-2469; assay: microbe, parasite or virus in culture; conditions: NDM-1
# Text: as §1
# [25] = test system: K. pneumoniae NCTC 13442 (OXA-48); assay: Neutropenic mouse lung infection model; assay type: in vivo, Klebsiella pneumoniae; conditions: 160 mg/kg/day s.c. (40 mg/kg at 2, 8, 14, 20 h), 26 h postchallenge
# [26] = test system: Citrobacter freundii (16); assay: microbe, parasite or virus in culture; conditions: Citrobacter freundii
# Text: as §1
# [27] = test system: Enterobacter cloacae (13); assay: microbe, parasite or virus in culture; conditions: Enterobacter cloacae
# Text: as §1
# [28] = test system: Ciprofloxacin-resistant E. coli (19); assay: microbe, parasite or virus in culture; conditions: Escherichia coli
# Text: as §1
# [29] = test system: Klebsiella pneumoniae (56); assay: microbe, parasite or virus in culture; conditions: Klebsiella pneumoniae
# Text: as §1
# [30] = test system: Gentamicin-resistant K. pneumoniae (16); assay: microbe, parasite or virus in culture; conditions: Klebsiella pneumoniae
# Text: as §1
# [31] = test system: Ciprofloxacin-resistant K. pneumoniae (27); assay: microbe, parasite or virus in culture; conditions: Klebsiella pneumoniae
# Text: as §1
# Escherichia coli (101) = assay: microbe, parasite or virus in culture; conditions: Escherichia coli
# Text: as §1
# [32] = test system: human renal proximal tubular epithelial cells (HRPTEpiC); assay: Multiplexed HRPTEpiC cytotoxicity assay (cell viability, KIM-1, HSP27)
# Protocol: The multiplexed cytotoxicity assay on human renal proximal tubule epithelial cells (HRPTEpiC) was conducted by Eurofins Panlabs (Eurofins Panlabs, Inc., St. Charles, MO) by using an image-based high content analysis (HCA) technique where cells were fixed and stained with nuclear dye to visualize nuclei and fluorescently labeled antibodies to detect drug-induced cellular injury and cellular stress arising from oxidative and chemical stress. Cells were seeded into 384-well plates and grown in RPMI 1640, 10% fetal bovine serum (FBS), 2 mM L-alanyl-L-glutamine, and 1 mM sodium pyruvate in a humidified atmosphere of 5% CO2 at 37°C. […] Compounds were serially diluted 3.16-fold and assayed over 10 concentrations in a final assay concentration of 0.5% dimethyl sulfoxide (DMSO) from 100 μM to 3.7 nM. At the same time, a time zero untreated cell plate was generated. After a 48-h incubation period, cells were fixed and stained with fluorescently labeled antibodies and nuclear dyed to allow visualization of nuclei, injured cells, and stressed cells. Injured cells were detected using a KIM-1 (kidney injury molecule 1) antibody. Stressed cells were detected using an anti-HSP27 (heat shock protein 27) antibody. Cell proliferation was measured by the signal intensity of the incorporated nuclear dye. The cell proliferation assay output was referred to as the relative cell count. To determine the cell proliferation endpoint, the cell proliferation data output was transformed to percentage of control (POC) using the following formula: POC = relative cell count in compound wells/relative cell count in vehicle wells × 100. The signal intensity of the incorporated cellular stress and injury measurements were normalized with the relative cell count from each well. Automated fluorescence microscopy was carried out using a Molecular Devices ImageXpress micro-imager, and images were collected with a 4× objective.
# [33] = Escherichia coli, BAA2469, Ambler class B carbapenemase
compound,measurement,setting,value
colistin [CST],MIC range,[1]; Unknown mechanism (1),32 µg/mL
same,MIC range,[1]; crrB G183V substitution (1),>128 µg/mL
same,MIC range,[1]; crrB N141Y substitution (1),>128 µg/mL
same,MIC range,[1]; crrB P151L substitution (1),>128 µg/mL
same,MIC range,[1]; mcr-1 (1),32 µg/mL
same,MIC range,[1]; mgrB IS1R between +44 and +45 (2),128 µg/mL
same,MIC range,[1]; mgrB IS1R into promoter between −45 and −46 (3),32 to 128 µg/mL
same,MIC range,[1]; mgrB IS5 between +74 and +75 (4),16 to 128 µg/mL
same,MIC range,[1]; mgrB IS903B between +69 and +70 (2),64 µg/mL
same,MIC range,[1]; mgrB ISKpn14 into promoter between −28 and −29 (2),64 µg/mL
same,MIC range,[1]; mgrB M27K substitution (1),32 µg/mL
same,MIC range,[1]; mgrB N42Y and K43I substitutions (1),32 µg/mL
same,MIC range,[1]; mgrB W20R substitution (1),32 µg/mL
same,MIC range,[1]; mgrB W47R substitution (1),8 µg/mL
same,MIC range,[1]; mgrB premature termination (6),32 to 128 µg/mL
same,MIC range,[1]; phoQ R16C substitution (1),>128 µg/mL
same,MIC range,[1]; pmrB L17Q substitution (1),32 µg/mL
same,MIC range,[1]; pmrB T157P substitution (6),8 to 32 µg/mL
same,MIC range,[2]; Unknown mechanism (2 isolates),16 µg/mL
same,MIC range,[2]; mcr-1 (21 isolates),4 to 16 µg/mL
same,MIC range,[2]; mcr-2 (1 isolate),8 µg/mL
same,MIC range,[2]; mcr-3 (1 isolate),16 µg/mL
"C[C@@H](O)[C@H]1C(=O)N2C(C(=O)O)=C(SCCN=CN)C[C@H]12 [IPM, imipenem]",MIC,[3],16 µg/mL
same,MIC,[4],≤ 0.125 µg/mL
same,MIC,[5],0.25 µg/mL
same,MIC,[6],≤ 0.125 µg/mL
same,MIC,[7],1 µg/mL
same,MIC,[8],> 64 µg/mL
same,MIC,[9],32 µg/mL
same,MIC,[10],4 µg/mL
same,MIC,[11],1 µg/mL
same,MIC,[12],1 µg/mL
same,MIC,[13],0.5 µg/mL
same,MIC,[14],1 µg/mL
same,MIC,[15],32 µg/mL
same,MIC,[16],2 µg/mL
same,MIC,[17],4 µg/mL
same,MIC,[18],> 64 µg/mL
same,MIC,[19],> 64 µg/mL
same,MIC,[20],2 µg/mL
same,MIC,[21],2 µg/mL
same,MIC,[22],≤ 0.125 µg/mL
same,MIC,[23],> 64 µg/mL
same,MIC,[24]; [33],32 µg/mL
"CN(C)c1cc(NC(=O)CNC(C)(C)C)c(O)c2c1C[C@H]1C[C@H]3[C@H](N(C)C)C(O)=C(C(N)=O)C(=O)[C@@]3(O)C(O)=C1C2=O [TGC, tigecycline]",MIC,[3],2 µg/mL
same,MIC,[4],0.5 µg/mL
same,MIC,[5],0.25 µg/mL
same,MIC,[6],0.125 µg/mL
same,MIC,[7],0.25 µg/mL
same,MIC,[8],4 µg/mL
same,MIC,[9],2 µg/mL
same,MIC,[10],0.125 µg/mL
same,MIC,[11],4 µg/mL
same,MIC,[12],2 µg/mL
same,MIC,[13],1 µg/mL
same,MIC,[14],1 µg/mL
same,MIC,[15],2 µg/mL
same,MIC,[16],1 µg/mL
same,MIC,[17],1 µg/mL
same,MIC,[18],1 µg/mL
same,MIC,[19],4 µg/mL
same,MIC,[20],> 8 µg/mL
same,MIC,[21],4 µg/mL
same,MIC,[22],0.5 µg/mL
same,MIC,[23],0.5 µg/mL
same,MIC,[24]; Ambler class B carbapenemase,1 µg/mL
same,MIC,[24]; [33],0.5 µg/mL
same,reduction of lung burden relative to vehicle,[25],3.14 log10 CFU/gram of lung tissue
"CNC(C)C1CCC(N)C(OC2C(N)CC(N)C(OC3OCC(C)(O)C(NC)C3O)C2O)O1 (centres unmarked) [GEN, gentamicin]",MIC,[3],0.25 µg/mL
same,MIC,[4],≤ 0.125 µg/mL
same,MIC,[5],1 µg/mL
same,MIC50,[26],1 µg/mL
same,MIC90,[26],> 32 µg/mL
same,MIC,[6],8 µg/mL
same,MIC,[7],16 µg/mL
same,MIC,[8],> 64 µg/mL
same,MIC,[9],1 µg/mL
same,MIC,[10],8 µg/mL
same,MIC,[11],0.5 µg/mL
same,MIC,[12],0.25 µg/mL
same,MIC,[13],16 µg/mL
same,MIC,[14],0.5 µg/mL
same,MIC50,[27],32 µg/mL
same,MIC90,[27],> 32 µg/mL
same,MIC,[15],16 µg/mL
same,MIC50,[28],0.5 µg/mL
same,MIC90,[28],> 32 µg/mL
same,MIC,[16],0.25 µg/mL
same,MIC,[17],0.25 µg/mL
same,MIC50,[29],1 µg/mL
same,MIC90,[29],> 32 µg/mL
same,MIC50,[30],> 32 µg/mL
same,MIC90,[30],> 32 µg/mL
same,MIC,[18],> 64 µg/mL
same,MIC,[19],32 µg/mL
same,MIC50,[31],32 µg/mL
same,MIC90,[31],> 32 µg/mL
same,MIC,[20],1 µg/mL
same,MIC,[21],0.5 µg/mL
same,MIC,[22],0.5 µg/mL
same,MIC50,Escherichia coli (101),1 µg/mL
same,MIC90,Escherichia coli (101),2 µg/mL
same,MIC,[23],4 µg/mL
same,MIC,[24]; [33],> 64 µg/mL
same,cytotoxicity to HRPTEpiC (in words),"[32]; concentrations up to 100 μM, 48-h incubation",not cytotoxic
same,concentration inducing a significant (5-fold) increase of HSP27 level,[32]; tested up to 100 μM,22.4 µM
same,concentration inducing a significant (5-fold) increase of KIM-1 level,[32]; tested up to 100 μM,> 100 µM
